Data reported in patent US20220274947A1, “NOVEL HETEROARYL-TRIAZOLE COMPOUNDS AS PESTICIDES” (Bayer Aktiengesellschaft, priority 2019, published 2022).

What was measured:
Format in all cases: in vivo
Diabrotica balteata = Diabrotica balteata spray test; conditions: 168 h, wheat seeds, larvae, after 7 days, read-out: activity (efficacy: 100% means all seedlings have grown up like in the untreated, uninfected control); for pest or weed control at 32 µg/disc, 100 g/ha: application rate 100 g/ha (=32 μg/well); for pest or weed control at 160 µg/disc, 500 g/ha: application rate 500 g/ha (=160 μg/well)
How it was run: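 Efficacy (%) was scored 7 days after spraying, with 100% meaning growth like the untreated, uninfected control and 0% meaning no seedling grew. Spray solutions of compound in acetone/DMF with emulsifier-containing water went onto 1-day-germinated wheat seeds, and each unit was then infested with 10-20 banded cucumber beetle larvae.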

Rhipicephalus microplus [1] = assay: Rhipicephalus (Boophilus) microplus injection test (BOOPMI Inj); conditions: 168 h, injection into adult engorged female ticks, egg deposition after 7 days, read-out: activity (efficacy: 100% means all eggs are infertile); for pest or weed control at 0.004 mg: application rate 4 μg/tick; for pest or weed control at 0.02 mg: application rate 20 μg/tick
How it was run: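 Compound in DMSO, 1 μL, injected abdominally into five adult engorged females, which were then held in a climate chamber. Read-out is egg fertility, scored from deposition at 7 days, with unclear eggs followed to hatching (~42 days); 0% means all eggs fertile, 100% all infertile.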

[2] = test system: Aedes aegypti strain MONHEIM; assay: Aedes aegypti test (AEDSAE surface treatment & contact assay); conditions: exposure 30 minutes, 24 hours after contact, read-out: efficacy (mortality); for mortality at 4 mg/m2: surface concentration 4 mg/m^2, glazed tile; for mortality at 20 mg/m2: surface concentration 20 mg/m^2, glazed tile
How it was run: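 Compound dissolved in acetone (2 mg/ml) with 2000 ppm rapeseed oil methyl ester, pipetted onto glazed tile and dried. Adult mosquitoes exposed on the surface for 30 min; percent mortality scored 24 h after contact.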

Spodoptera frugiperda = Spodoptera frugiperda spray test; conditions: in Zea mays, 168 h, read-out: activity (mortality)
How it was run: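 Percent kill of fall armyworm caterpillars was assessed 7 days after infesting dried, treated maize leaf sections. Treatment was a spray of compound in acetone/dimethylformamide, diluted with water containing emulsifier at 1000 ppm.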

Rhipicephalus microplus [3] = assay: Rhipicephalus (Boophilus) microplus in-vitro contact test, larval cattle tick, strain Parkhurst (BOOPMI Cont); conditions: application rate 5 μg/cm^2 (=500 g/ha), tick larvae, after 48 hours, read-out: activity (efficacy: 100% means all larvae are dead or moribund)
How it was run: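 After 48 h at 27° C. and 85% humidity, percent dead or moribund larvae was scored from negative geotactic behaviour. Larvae (20-50, Parkhurst strain, synthetic pyrethroid-resistant) were exposed in tubes coated with compound from acetone, 900 ppm corresponding to 5 μg/cm^2.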

Ctenocephalides felis [4] = assay: Ctenocephalides felis in-vitro contact test, adult cat flea (CTECFE Cont); conditions: application rate 5 μg/cm^2 (=500 g/ha), adult cat fleas, after 48 hours, read-out: activity (efficacy: 100% means all fleas are dead or moribund)
Description: Ctenocephalides felis—In-Vitro Contact Tests Adult Cat Flea (CTECFE Cont)
9 mg compound is solved in 1 mL acetone and diluted with acetone to the desired concentration. 250 μL of the test solution is filled in 25 mL glass test tubes and homogeneously distributed on the inner walls by rotation and tilting on a shaking device (2 h at 30 rpm). With a compound concentration of 900 ppm, an inner surface of 44.7 cm^2 and a homogeneous distribution, a dose of 5 μg/cm^2 is achieved.
After the solvent has evaporated, each test tube is filled with 5-10 adult cat fleas (Ctenocephalides felis), closed with a perforated lid and incubated in a lying position at room temperature and relative humidity. After 48 hours efficacy is determined. The fleas are patted on the ground of the tubes and are incubated on a heating plate at 45-50° C. for at most 5 minutes. Immotile or uncoordinated moving fleas, which are not able to escape the heat by climbing upwards, are marked as dead or moribund.
An efficacy of 100% means all fleas are dead or moribund; 0% means no fleas are dead or moribund.

Rhipicephalus sanguineus = Rhipicephalus sanguineus in-vitro contact test, adult brown dog ticks (RHIPSA Cont); conditions: 48 h, after 48 hours, read-out: activity (efficacy: 100% means all ticks are dead or moribund); for pest or weed control at 1 µg/cm2, 100 g/ha: application rate 1 μg/cm^2 (=100 g/ha); for pest or weed control at 5 µg/cm2, 500 g/ha: application rate 5 μg/cm^2 (=500 g/ha)
How it was run: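 Compound in acetone (9 mg/mL stock, diluted to test concentration) is coated onto inner walls of glass tubes by rotation for 2 h at 30 rpm. Efficacy is read after 48 h: ticks are tapped down and held on a 45-50° C plate for at most 5 min, and immotile or uncoordinated ones that fail to climb away count as dead or moribund.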

Ctenocephalides felis [5] = assay: Ctenocephalides felis oral test (CTECFE Oral); conditions: 48 h, read-out: activity (mortality)
How it was run: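 Percent mortality was recorded 2 days after roughly 20 adult Ctenocephalides felis fed on treated cattle blood. The blood was warmed to 37 °C beneath a parafilm membrane, with the fleas kept at room temperature. Compound was dissolved in DMSO and diluted into the blood to test concentration.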

Myzus persicae = Myzus persicae oral test; conditions: 120 h, read-out: activity (mortality)
How it was run: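 Percent mortality was recorded at day 5, where 0% means no aphids killed. Compound prepared from an acetone concentrate diluted in water and combined with IPL41 medium containing sugar was offered to mixed-stage green peach aphids, which sucked it through a parafilm seal.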

[6] = test system: Musca domestica strain WHO—N; assay: Musca domestica test (MUSCDO surface treatment & contact assay); conditions: exposure 30 minutes, 24 hours after contact, read-out: efficacy (mortality); for mortality at 4 mg/m2: surface concentration 4 mg/m^2, glazed tile; for mortality at 20 mg/m2: surface concentration 20 mg/m^2, glazed tile
Description: Musca domestica Test (MUSCDO Surface Treatment & Contact Assay) Solvent: Aceton+2000 ppm rapeseed oil methyl ester (RME)
In order to produce a sufficient, active ingredient containing solution it is necessary to solve the test compound in the solvent-mix (acetone at 2 mg/ml/RME 2000 ppm). This solution is pipetted onto a glazed tile and after evaporation of the acetone, adult flies of the species Musca domestica strain WHO—N are placed onto the dried surface. The exposure time is 30 minutes. Mortality in percent (%) is determined 24 hours after contact of the insects to the treated surface. 100% mortality means that all tested insects are dead, whereas 0% means that no insect died.

## CC(C)N(C(=O)c1ccc(-n2ncnc2[C@H](C)NC(=O)c2cc(Cl)cc(C(F)(F)F)c2)nc1)C1CC1 [II-29]
Diabrotica balteata
  pest or weed control at 32 µg/disc, 100 g/ha: 100%
  pest or weed control at 160 µg/disc, 500 g/ha: 100%
Rhipicephalus microplus [1]
  pest or weed control at 0.004 mg: 100%
  pest or weed control at 0.02 mg: 100%
[2]
  mortality at 4 mg/m2: 80 to 100%
  mortality at 20 mg/m2: 80 to 100%
Spodoptera frugiperda
  mortality at 100 g/ha: 83%
  mortality at 500 g/ha: 100%
Rhipicephalus microplus [3]
  pest or weed control at 5 µg/cm2: 100%
Ctenocephalides felis [4]
  pest or weed control at 5 µg/cm2: 100%
Rhipicephalus sanguineus
  pest or weed control at 1 µg/cm2, 100 g/ha: 100%
  pest or weed control at 5 µg/cm2, 500 g/ha: 100%
Ctenocephalides felis [5]
  mortality at 100 ppm: 100%

## C[C@H](NC(=O)c1cc(Cl)cc(C(F)(F)F)c1)c1ncnn1-c1ccc(C(=O)N(C)CC(F)(F)F)cn1 [II-69]
Myzus persicae
  mortality at 4 ppm: 100%
Diabrotica balteata
  pest or weed control at 32 µg/disc, 100 g/ha: 80%
Rhipicephalus microplus [1]
  pest or weed control at 0.004 mg: 100%
  pest or weed control at 0.02 mg: 100%
Spodoptera frugiperda
  mortality at 100 g/ha: 83%
  mortality at 500 g/ha: 100%
Rhipicephalus microplus [3]
  pest or weed control at 5 µg/cm2: 100%
Ctenocephalides felis [4]
  pest or weed control at 5 µg/cm2: 90%
Rhipicephalus sanguineus
  pest or weed control at 1 µg/cm2, 100 g/ha: 100%
  pest or weed control at 5 µg/cm2, 500 g/ha: 100%
Ctenocephalides felis [5]
  mortality at 100 ppm: 100%

## COc1nc([C@H](C)NC(=O)c2cc(Br)cc(Br)c2)n(-c2ccc(C#N)cn2)n1 [I-61]
Myzus persicae
  mortality at 4 ppm: 100%
Diabrotica balteata
  pest or weed control at 32 µg/disc, 100 g/ha: 100%
Rhipicephalus microplus [1]
  pest or weed control at 0.004 mg: 100%
Spodoptera frugiperda
  mortality at 100 g/ha: 100%
Rhipicephalus microplus [3]
  pest or weed control at 5 µg/cm2: 100%
Ctenocephalides felis [4]
  pest or weed control at 5 µg/cm2: 80%
Rhipicephalus sanguineus
  pest or weed control at 1 µg/cm2, 100 g/ha: 100%
  pest or weed control at 5 µg/cm2, 500 g/ha: 100%

## C[C@H](NC(=O)c1cc(Cl)cc(C(F)(F)F)c1)c1ncnn1-c1cc(-n2ccnc2)ccn1 [II-102]
Rhipicephalus microplus [1]
  pest or weed control at 0.004 mg: 100%
Rhipicephalus microplus [3]
  pest or weed control at 5 µg/cm2: 90%
Ctenocephalides felis [4]
  pest or weed control at 5 µg/cm2: 80%
Ctenocephalides felis [5]
  mortality at 100 ppm: 100%

## C[C@H](NC(=O)c1cc(C(F)(F)F)cc(C(F)(F)F)c1)c1ncnn1-c1cc(C(=O)N(C)C)ccn1 [II-86]
Myzus persicae
  mortality at 0.8 ppm: 100%
  mortality at 4 ppm: 100%
Diabrotica balteata
  pest or weed control at 32 µg/disc, 100 g/ha: 100%
Spodoptera frugiperda
  mortality at 100 g/ha: 100%
Rhipicephalus microplus [3]
  pest or weed control at 5 µg/cm2: 100%
Ctenocephalides felis [4]
  pest or weed control at 5 µg/cm2: 100%
Rhipicephalus sanguineus
  pest or weed control at 1 µg/cm2, 100 g/ha: 100%
  pest or weed control at 5 µg/cm2, 500 g/ha: 80%
Ctenocephalides felis [5]
  mortality at 100 ppm: 100%

## C[C@H](NC(=O)c1cc(Cl)cc(OC(F)(F)F)c1)c1ncnn1-c1cc(C#N)ccn1 [II-33]
[6]
  mortality at 4 mg/m2: 80 to 100%
  mortality at 20 mg/m2: 80 to 100%
Myzus persicae
  mortality at 4 ppm: 100%
Diabrotica balteata
  pest or weed control at 32 µg/disc, 100 g/ha: 100%
  pest or weed control at 160 µg/disc, 500 g/ha: 100%
Rhipicephalus microplus [1]
  pest or weed control at 0.004 mg: 100%
  pest or weed control at 0.02 mg: 100%
[2]
  mortality at 4 mg/m2: 80 to 100%
  mortality at 20 mg/m2: 80 to 100%
Spodoptera frugiperda
  mortality at 100 g/ha: 100%
  mortality at 500 g/ha: 100%
Rhipicephalus microplus [3]
  pest or weed control at 5 µg/cm2: 100%
Ctenocephalides felis [4]
  pest or weed control at 5 µg/cm2: 90%
Rhipicephalus sanguineus
  pest or weed control at 1 µg/cm2, 100 g/ha: 80%
  pest or weed control at 5 µg/cm2, 500 g/ha: 80%

## CCc1nc([C@H](C)NC(=O)c2cc(Cl)cc(C(F)(F)F)c2)n(-c2ccc(C#N)cn2)n1 [I-3]
[6]
  mortality at 4 mg/m2: 80 to 100%
  mortality at 20 mg/m2: 80 to 100%
Myzus persicae
  mortality at 4 ppm: 90%
Diabrotica balteata
  pest or weed control at 32 µg/disc, 100 g/ha: 100%
  pest or weed control at 160 µg/disc, 500 g/ha: 100%
Rhipicephalus microplus [1]
  pest or weed control at 0.004 mg: 100%
  pest or weed control at 0.02 mg: 100%
[2]
  mortality at 4 mg/m2: 80 to 100%
  mortality at 20 mg/m2: 80 to 100%
Spodoptera frugiperda
  mortality at 100 g/ha: 100%
  mortality at 500 g/ha: 100%
Rhipicephalus microplus [3]
  pest or weed control at 5 µg/cm2: 100%
Ctenocephalides felis [4]
  pest or weed control at 5 µg/cm2: 100%

## C[C@H](NC(=O)c1cc(Br)cc(I)c1)c1ncnn1-c1ccc(C#N)cn1 [II-112]
Diabrotica balteata
  pest or weed control at 32 µg/disc, 100 g/ha: 100%
Rhipicephalus microplus [1]
  pest or weed control at 0.004 mg: 100%
Spodoptera frugiperda
  mortality at 100 g/ha: 100%
Rhipicephalus microplus [3]
  pest or weed control at 5 µg/cm2: 100%
Ctenocephalides felis [4]
  pest or weed control at 5 µg/cm2: 80%
Rhipicephalus sanguineus
  pest or weed control at 1 µg/cm2, 100 g/ha: 100%
  pest or weed control at 5 µg/cm2, 500 g/ha: 100%
Ctenocephalides felis [5]
  mortality at 100 ppm: 100%

## CCN(CC)C(=O)c1ccnc(-n2ncnc2[C@H](C)NC(=O)c2cc(C(F)(F)F)cc(C(F)(F)F)c2)c1 [II-85]
Myzus persicae
  mortality at 4 ppm: 100%
Diabrotica balteata
  pest or weed control at 32 µg/disc, 100 g/ha: 100%
Spodoptera frugiperda
  mortality at 100 g/ha: 83%
Rhipicephalus microplus [3]
  pest or weed control at 5 µg/cm2: 100%
Ctenocephalides felis [4]
  pest or weed control at 5 µg/cm2: 100%
Rhipicephalus sanguineus
  pest or weed control at 1 µg/cm2, 100 g/ha: 100%
  pest or weed control at 5 µg/cm2, 500 g/ha: 100%

## CC(C)c1nc([C@H](C)NC(=O)c2cc(Br)cc(Br)c2)n(-c2ccc(C#N)cn2)n1 [I-24]
Diabrotica balteata
  pest or weed control at 32 µg/disc, 100 g/ha: 100%
Rhipicephalus microplus [1]
  pest or weed control at 0.004 mg: 100%
  pest or weed control at 0.02 mg: 100%
Spodoptera frugiperda
  mortality at 100 g/ha: 100%
Rhipicephalus microplus [3]
  pest or weed control at 5 µg/cm2: 100%
Ctenocephalides felis [4]
  pest or weed control at 5 µg/cm2: 80%
Rhipicephalus sanguineus
  pest or weed control at 1 µg/cm2, 100 g/ha: 100%
  pest or weed control at 5 µg/cm2, 500 g/ha: 100%
Ctenocephalides felis [5]
  mortality at 100 ppm: 100%
